Results reported in patent US6599499B1, “Uses of diterpenoid triepoxides as an anti-proliferative agent” (priority 1999, dated 2003).
“And” between values parts separate entries of the source, which are not always exact repeats. Identical values can stand only once.

Tests used:
[1] = tested on: p53 translation; test: p53 translation by [35S]methionine metabolic labeling of MCF-7 cells; assay type: cell-based, human; details: MCF-7, triptolide 20 ng/ml pretreatment 6 h
Description: Metabolic labeling of MCF-7cells. Cells were grown to 80% confluence followed by pretreatment with triptolide (20 ng/ml) for 6 h in the appropriate medium. Cells were washed twice with short-term labeling medium (RPMI with 5% dialyzed FCS supplemented with L-glutamine, penicillin, and streptomycin). To deplete intracellular pools of methionine short-term labeling medium was added for 15 min at 37° C., then replaced by short-term labeling medium containing 0.1 mCi/ml [^35S] methionine (Amersham, Inc.). Cells were labeled for 30 min at 37° C. and washed with ice-cold PBS before harvesting for immunoprecipitation. The cells were lysed using RIPA buffer supplemented with protease inhibitors and immunoprecipitated using an agarose-conjugated p53 mAb (Ab-6, Oncogene Research Products) followed by 10% SDS-PAGE. The intensity of labeled p53 protein was measured by NIH Image 1.62.

[2] = tested on: phosphorylated p53; test: p53 phosphorylation by in vivo [32P]orthophosphate labeling of HT1080 cells; assay type: cell-based, human; details: HT1080, triptolide 20 ng/ml, 3 h
Description: In Vivo [^32P]Orthophosphate Labeling. Subconfluent HT1080 cells were pretreated with 20 ng/ml triptolide for 2 h in Dulbecco's modified Eagle's medium supplemented with 10% fetal bovine serum and antibiotics. These cells were washed twice with 37 ° C. labeling medium (Dulbecco's modified Eagle's medium, 10% fetal bovine serum dialyzed against phosphate-free) lacking sodium phosphate. Cells were then labeled for an additional 1 h with the labeling medium containing 1 mCi/ml [32P]orthophosphate and 20 ng/ml triptolide. The labeling medium was removed, and the cells were washed three times with cold Tris-buffered saline (TBS). The cells were scraped in 1 ml of lysis buffer (1% Nonidet P40, 1% sodium deoxycholate, 0.1% SDS, 0.15 M NaCl, 0.01 M sodium phosphate, pH 7.2, 2 mM EDTA, 50 mM sodium fluoride, 0.2 mM sodium vanadate, and 100 units/ml aprotinin) and kept on ice for 10 min. Lysates were passed through 27-gauge needles and spun at 11,000×g for 10 min, and 100 μg of the supernatants were subjected to immunoprecipitation with p53 mAb (Ab-6) conjugated with agarose for 4 h. Samples were then spun at 2500 rpm at 4° C. for 5 min and washed three times with the lysis buffer. The pellets were boiled in SDS sample buffer and analyzed on 10% SDS-PAGE. The bands were visualized and quantified by Optiquant Phosphorlmager.

[3] = tested on: p53 consensus binding site; test: Electromobility shift assay of p53 DNA binding; assay type: cell-based, human
Description: Electromobility Shift Assay (EMSA. HT1080 cells were treated as shown. The EMSA was performed as described previously using an end-labeled 32P-p53 consensus binding site (Santa Cruz Biotechnology, Santa Cruz, Calif.) (Lee et al., supra.)

[4] = tested on: p53 translation; test: p53 translation by 35S methionine metabolic labeling of HT1080 cells; assay type: cell-based, human; details: HT1080, triptolide 20 ng/ml pretreatment 6 h
Description: Metabolic Labeling of HT1080 Cells. Cells were grown to 80% confluence followed by pretreatment with triptolide (20 ng/ml) for 6 h in the appropriate medium. Cells were washed twice with short term labeling medium (RPMI with 5% dialyzed fetal calf serum supplemented with L-glutamine, penicillin, and streptomycin). To deplete intracellular pools of methionine, short term labeling medium was added for 15 min at 37° C. and then replaced by short term labeling medium containing 0.1 mCi/ml [35S]methionine (Amersham Pharmacia Biotech). Cells were labeled for 30 min at 37° C. and washed with ice-cold PBS before harvesting for immunoprecipitation. The cells were lysed using RIPA buffer supplemented with protease inhibitors and immunoprecipitated using an agarose-conjugated p53 mAb (Ab-6, Oncogene Research Products) followed by 10% SDS-PAGE. The intensity of labeled p53 protein was measured by NIH Image 1.62.

[5] = tested on: Dx5 (MDR uterine sarcoma) cell line; test: cells
Description: (§1) Cells and Transfections. H23 (non-small cell lung cancer) and ZR-75 (breast cancer) cell lines were purchased from ATCC. The Bcl-2 expression vector was provided by Fred Hutchinson Cancer Research Center, Seattle, Wash. MES-SA and Dx5 cell lines were provided by Branimir Sikic (Stanford University). Cells were cultured in the appropriate medium with 10% FCS supplemented with L-glutamine, penicillin and streptomycin. To examine the effect of Bcl-2 on cell survival, the Bcl-2 expression vector or the vector alone was co-transfected with a β galactosidase expression vector (Invitrogen, Carlsbad, Calif.) at a 5:1 ratio using lipofectamine plus (GIBCO BRL, Gaithersburg, Md.) into Dx5 cells. After 36 h cells were stained with 5-bromo4-chloro-3-indolyl […]-D-galactopyranoside (X-gal). Cell survival was calculated as number of total cells-blue cells/total number of cells in a 90 mm^2 area from duplicate plates and expressed as the mean ±S.D.
(§2) Cell death reagents and assays. Cell viability was measured by an MTT assay as recently described (Lee et al. (1999) J. Biol. Chem. 274:13451-13455. z-VAD-fluoromethylketone (z-VAD.fmk) was obtained from Alexis Biochemicals, San Diego, Calif. The effect of z-VAD.fmk on cell viability was analyzed by annexin and propidium iodide staining followed by FACS analysis according to the manufacturer's protocol (Clontech Laboratories, Palo Alto, Calif.). The analysis of apoptosis in histologic sections was done by terminal deoxynucleotidyl transferase (TdT)-mediated d-UTP nick end labeling (TUNEL) of slides from paraffin sections of day 3 tumors harvested from the mice 24 h after the second of two daily treatments with PG490-88 or saline. TUNEL staining was done according to the manufacturer's protocol (Boehringer Mannheim, Indianapolis, Ind.) and then the histology slides were counterstained with methyl green. DNA was isolated from cells for analysis of internucleosomal DNA laddering followed by agarose gel electrophoresis and ethidium bromide staining.
(§3) In FIG. 1A, ZR-75 (breast cancer), H23 (non-small cell lung cancer) and Dx5 (MDR uterine sarcoma) cell lines were treated with PG490 at dosages shown and harvested 48 h later for analysis of cell viability by an MTT assay. Data is the mean of three experiments ±S.D. In FIG. 1B, DNA was isolated from untreated or PG490-treated cells 16 h after the addition of PG490 followed by agarose gel electrophoresis and ethidium bromide staining.

[6] = tested on: H23 (non-small cell lung cancer) cell line; test: cells
Description: as §1, §2, §3

[7] = tested on: ZR-75 (breast cancer) cell line; test: cells; details: ZR75, 48 h
Description: as §1, §2, §3

[8] = tested on: NF-κB; test: NF-κB transcriptional activity in HT1080 cells; assay type: cell-based, human

CC(C)[C@]12O[C@H]1[C@@H]1O[C@]13[C@]1(O[C@H]1C[C@H]1C4=C(CC[C@@]13C)C(=O)OC4)[C@@H]2O [PG490, triptolide]
increase in p53 translation [1]: 4.9 fold and 5 fold | increase in phosphorylated p53 compared with untreated cells [2]: 2-3 fold | DNA binding of p53 ([3]; triptolide alone): slightly enhanced | effect on doxorubicin-mediated induction of DNA binding of p53 ([3]; triptolide in combination with doxorubicin): did not block | increase in p53 translation [4]: 4.9 fold | difference in sensitivity between Dx5 cell line and parent MES-SA cell line [5]: No significant difference | cytotoxicity at 0.01 µg/mL ([5]; Homo sapiens, 48 h, read-out: decrease in cell viability): 65 to 70% | cytotoxicity at 0.02 µg/mL ([5]; Homo sapiens, 48 h, read-out: reduction of cell viability): > 80% | cytotoxicity at 0.01 µg/mL ([6]; Homo sapiens, NCI-H23, 48 h, read-out: decrease in cell viability): 65 to 70% | cytotoxicity at 0.02 µg/mL ([6]; Homo sapiens, NCI-H23, 48 h, read-out: reduction of cell viability): > 80% | cell death, % of cells ([6]; mutant p53 lung cancer cell line): over 80% | cytotoxicity at 0.01 µg/mL ([7]; read-out: decrease in cell viability): 24% | cytotoxicity at 0.02 µg/mL ([7]; read-out: reduction of cell viability): > 80%

COc1cccc2c1C(=O)c1c(O)c3c(c(O)c1C2=O)C[C@@](O)(C(=O)CO)C[C@@H]3O[C@H]1C[C@H](N)[C@H](O)[C@H](C)O1 [doxorubicin, reference compound]
NF-κB transcriptional activity [8]: did not induce
